According to patent US20250051275A1, “PYRROLE DERIVATIVE OR PHARMACEUTICALLY OR SITOLOGICALLY ACCEPTABLE SALTS THEREOF, AND COMPOSITION FOR PREVENTION, AMELIORATION OR TREATMENT OF GASTROINTESTINAL DISORDERS COMPRISING SAME AS ACTIVE INGREDIENT” (HANA PHARM CO., LTD., priority 2021, published 2025):

Assays:
[1] = Pharmacokinetics in rats according to deuterium substitution; type: in vivo; settings: male rats, oral 10 mg/kg; for concentration at 0.5 h / concentration at 1 h / concentration at 2 h / concentration at 5 h / concentration at 8 h: Sprague-Dawley, rat, plasma, read-out: Blood concentration; for concentration at 0.5 h: 0.5 hr after administration; for concentration at 1 h: 1 hr after administration; for concentration at 2 h: 2 hr after administration; for concentration at 5 h: 5 hr after administration; for concentration at 8 h: 8 hr after administration
Method: In order to evaluate the impact on the deuterium substituent in terms of pharmacokinetics, the blood concentrations of Example 35 and Comparative Example 2 in rats were measured and compared. Six male rats (Sprague-Dawley Rats) were obtained, acclimatized, and then distributed into two groups with three rats per test group. As feed, irradiated solid feed was allowed to be freely consumed, and, as water, tap water disinfected with an ultraviolet sterilizer and micro-filtration device was placed in a polycarbonate drinking bottle and allowed to be freely consumed. Rats were raised in an animal breeding area maintained at a temperature of 23±3° C., with a relative humidity of 50±20%, a ventilation frequency of 10 to 15 times/hr, for a lighting time of 12 hours (lights on at 8 a.m. to lights off at 8 p.m.), and with an illuminance of 150 to 300 Lux.
Blood samples were obtained from the jugular vein at 0.5, 1, 2, 5, and 8 hours after drug administration, respectively. Blood samples were centrifuged (2 to 8° C., 3,200 g, 10 minutes) to obtain plasma. The amount of administered compound into the plasma sample was quantified by using LC-MS/MS.

[2] = system: rats (Sprague-Dawley Rats); assay: Acute oral toxicity in rats; type: in vivo; settings: female rats
Description: An attempt was made to evaluate the acute toxicity of the compound of Example 7 on the fumarate form (Example 41). Twenty female rats (Sprague-Dawley Rats) were obtained, acclimatized, and distributed into a total of four groups, five rats per test group. As feed, irradiated solid feed was allowed to be freely consumed, and, as water, tap water disinfected with an ultraviolet sterilizer and micro-filtration device was placed in a polycarbonate drinking bottle and allowed to be freely consumed. Rats were raised in an animal breeding area maintained at a temperature of 23±3° C., with a relative humidity of 50±20%, a ventilation frequency of 10 to 15 times/hr, for a lighting time of 12 hours (lights on at 8 a.m. to lights off at 8 p.m.), and with an illuminance of 150 to 300 Lux. As the administration, oral administration, the clinically planned route, was selected for evaluation, and, as the administration dose, the highest dose was set at 600 mg/kg, referring to the results of vonoprazan.

| concentration at 0.5 h [1] [ng/mL] | concentration at 1 h [1] [ng/mL] | concentration at 2 h [1] [ng/mL] | concentration at 5 h [1] [ng/mL] | concentration at 8 h [1] [ng/mL] | blood concentration level higher as compared to Comparative Example 2 ([1]; 0.5 hours after administration) [times] | blood concentration level higher as compared to Comparative Example 2 ([1]; after 1 hour) | blood concentration level higher as compared to Comparative Example 2 ([1]; after 2 hours) | Structure (SMILES) | Survival rate (%) ([2]; single oral dose 50 mg/kg) | Survival rate (%) ([2]; single oral dose 200 mg/kg) | Survival rate (%) ([2]; single oral dose 400 mg/kg) | Survival rate (%) ([2]; single oral dose 600 mg/kg) |
| --- | --- | --- | --- | --- | --- | --- | --- | --- | --- | --- | --- | --- |
| 59.7 | 116 | 83.8 | 12.8 | 5.1 |  |  |  | CNCc1cn(S(=O)(=O)c2cccnc2)c(-c2ccc(F)cc2F)c1OC [Comparative Example 2, reference compound] |  |  |  |  |
| 302 | 254 | 199 | 22.6 | 4.8 | 5 | at least 2 times | at least 2 times | [2H]C([2H])([2H])NCc1cn(S(=O)(=O)c2cccnc2)c(-c2ccc(F)cc2F)c1OC [Example 35, N-((5-(2,4-difluorophenyl)-4-methoxy-1-(pyridin-3-ylsulfonyl)-1H-pyrrol-3-yl)methyl)methan-d3-amine] |  |  |  |  |
|  |  |  |  |  |  |  |  | O=C(O)/C=C/C(=O)O.[2H]C([2H])([2H])NCc1cc(-c2ccccc2F)n(S(=O)(=O)c2ccc(F)cc2)c1 [Example 41, N-((5-(2-fluorophenyl)-1-((4-fluorophenyl)sulfonyl)-1H-pyrrol-3-yl)methyl)methane-d3-amine Fumarate] | 100 | 100 | 100 | 0 |
